Results from the NIST ThermoML archive (doi:10.1021/je201289w).

How the values were obtained:
[1] = refractive index (Na D-line) (dimensionless); conditions: 101.33 kPa, Liquid, Standard Abbe refractometry
[2] = 101.33 kPa, Liquid, Vibrating tube method

CCn1cc[n+](C)c1.O=S(=O)([O-])O [1-ethyl-3-methylimidazolium hydrogen sulfate]
Conditions	mass density, [2] [kg/m3]	refractive index, [1]
283.15 K	1376.7	1.50042
288.15 K	1373.6	1.49931
293.15 K	1370.5	1.4982
298.15 K	1367.4	1.4971
303.15 K	1364.3	1.49601
308.15 K	1361.1	1.49489
313.15 K	1357.8	1.49379
318.15 K	1354.6	1.49269
323.15 K	1351.5	1.49161
328.15 K	1348.5	1.49052
333.15 K	1345.4	1.48944
338.15 K	1342.4	1.48836
343.15 K	1339.4	1.48727
348.15 K	1336.4	1.48623
353.15 K	1333.4	1.48512

CCn1cc[n+](C)c1.N#C[S-] [1-ethyl-3-methylimidazolium thiocyanate]
Conditions	mass density, [2] [kg/m3]	refractive index, [1]
283.15 K	1124.7	1.556
288.15 K	1121.7	1.5545
293.15 K	1118.6	1.55299
298.15 K	1115.5	1.55149
303.15 K	1112.4	1.54999
308.15 K	1109.4	1.5485
313.15 K	1106.3	1.54702
318.15 K	1103.3	1.54557
323.15 K	1100.3	1.54409
328.15 K	1097.3	1.54263
333.15 K	1094.4	1.54119
338.15 K	1091.4	1.53973
343.15 K	1088.4	1.53831
348.15 K	1085.5	1.53687
353.15 K	1082.6	1.53545

CCOS(=O)(=O)[O-].CCn1cc[n+](C)c1 [1-ethyl-3-methylimidazolium ethyl sulfate]
Conditions	mass density, [2] [kg/m3]	refractive index, [1]
283.15 K	1247.7	1.48317
288.15 K	1244.3	1.48185
293.15 K	1241	1.48053
298.15 K	1237.6	1.47921
303.15 K	1234.3	1.47789
308.15 K	1231	1.47657
313.15 K	1227.6	1.47528
318.15 K	1224.3	1.47395
323.15 K	1220.9	1.47262
328.15 K	1217.6	1.4713
333.15 K	1214.2	1.46994
338.15 K	1210.9	1.4685
343.15 K	1207.6	1.46723
348.15 K	1204.2	1.46596
353.15 K	1200.9	1.46468

CCC[N+]1(C)CCCC1.O=S(=O)([N-]S(=O)(=O)C(F)(F)F)C(F)(F)F
Conditions	mass density, [2] [kg/m3]	refractive index, [1]
283.15 K	1441	1.42474
288.15 K	1436.4	1.42336
293.15 K	1431.9	1.42201
298.15 K	1427.4	1.42064
303.15 K	1422.8	1.41925
308.15 K	1418.3	1.41792
313.15 K	1413.8	1.41656
318.15 K	1409.3	1.41519
323.15 K	1404.8	1.41389
328.15 K	1400.4	1.41252
333.15 K	1396	1.41119
338.15 K	1391.6	1.40986
343.15 K	1387.2	1.40853
348.15 K	1382.9	1.40718
353.15 K	1378.6	1.40589

CCn1cc[n+](C)c1.N#C[B-](C#N)(C#N)C#N [1-ethyl-3-methylimidazolium tetracyanoborate]
Conditions	mass density, [2] [kg/m3]	refractive index, [1]
283.15 K	1041	1.45284
288.15 K	1037	1.45108
293.15 K	1032.9	1.44936
298.15 K	1028.9	1.44763
303.15 K	1024.9	1.44592
308.15 K	1020.9	1.44421
313.15 K	1016.9	1.44252
318.15 K	1013	1.44081
323.15 K	1009.1	1.43913
328.15 K	1005.2	1.43745
333.15 K	1001.3	1.43578
338.15 K	997.4	1.43412
343.15 K	993.6	1.43248
348.15 K	989.8	1.43085
353.15 K	986	1.42922
